# In patent publication US20110082074A1, “AGENT FOR PREVENTING PERIODONTAL DISEASE” (priority 2009, published 2011):
# “Also recorded” adds a separate entry of the source.
# Experiments:
# TGF-β = test: Confirmation of cytokine production: TGF-β produced by Ca9-22 cells; assay type: cell-based; details: 30 μl beads, FIG. 7
# Procedure: Ca9-22 cells were seeded into a 96-well plate in an amount of 5×10^5 cells. The next day, (1) a lipopolysaccharide (hereinafter also referred to as “LPS”; 10 ng/ml), (2) TNF-α(10 ng/ml), (3) P. gingivalis carrying FimA type II fimbrial protein (5 μl), or (4) FimA II-GST (10 μg/ml) was added as a reagent. The parenthesized numerals in the above sentence indicate the final concentrations in the media containing the reagents to 50 μl of the medium.
# SBA beads, RGD peptide−SBA beads, or fibronectin−SBA beads were allowed to coexist therewith in an amount of 30 μl, and the plate was rocked. The amount of TGF-β produced was then measured.
# [1] = tested on: P. gingivalis carrying type II FimA fimbrial protein; test: Binding Inhibitory Experiment 3: fluorescently labeled P. gingivalis bound to seeded test cells; assay type: cell-based, Porphyromonas gingivalis; details: 30 μl beads, 10 μl P. gingivalis, room temperature 10 minutes; FIG. 4
# Procedure: Test cells were seeded into a 96-well plate in an amount of 5×10^5 cells. The next day, 10 μl of P. gingivalis carrying FimA type II fimbrial protein was allowed to bind, and 30 μl each of SBA beads, RGD peptide−SBA beads, and fibronectin−SBA beads were added. The plate was shaken at room temperature for 10 minutes.
# The 96-well plate was gently washed. Fluorescently labeled P. gingivalis carrying type II FimA fimbrial protein bound to the cells was detected using a fluorescence detector. P. gingivalis was fluorescently labeled by using an FITC Labeling Kit (manufactured by Kirkegaard & Perry Laboratories, Inc.) after P. gingivalis was immobilized with formalin.
# [2] = tested on: binding between gingival cells and FimA II; test: Effect of monosaccharide on binding inhibitory effect: labeled test cells bound to immobilized FimA II-His; assay type: cell-based, Porphyromonas gingivalis; details: monosaccharide final concentration 50 μg/ml with 10 μl RGD peptide−SBA beads; FIG. 6
# Procedure: FimA II-His (10 μg/ml) was immobilized onto a 96-well plate, and test cells that had been fluorescently labeled with CellTracker Green CMFDA (Invitrogen) were bound thereto in an amount of 1×10^6 cells.
# SBA beads, RGD peptide, or RGD peptide−SBA beads were allowed to coexist in the wells in an amount of 10 μl, and the plate was shaken. In addition to the RGD peptide−SBA beads, glucose or N-acetylgalactosamine (GalNAc) was allowed to coexist therewith in a final concentration of 50 μg/ml. For comparison, wells of a 96-well plate in which no beads were present and only N-acetylgalactosamine was present in a final concentration of 50 μg/ml were also prepared.
# (§1) The 96-well plate was filled with PBS. After unbound cells were removed, bound cells were detected using a fluorescent plate reader.
# [3] = target: T1, α5β1 integrin expressing cells (Homo sapiens, UniProt P05556+P08648); test: Binding ratio of RGD peptide or fibronectin to SBA beads, FimA II-His binding inhibitory experiment; assay type: cell-based; details: RGD peptide bound in an amount of 10 to 30 μg per 100 μg of SBA beads
# T1 construct: expressed in transfected cells; host or cells: CHO (CHO-VLA5)
# Procedure: Another experiment was performed using α5β1 integrin expressing cells in a manner similar to the FimA II-His tag protein binding inhibitory experiment described above, to investigate the binding ratio of RGD peptide or fibronectin to SBA beads.
# [4] = target: T2, binding of type II FimA protein to α5β1 integrin expression cells (Homo sapiens, UniProt P05556+P08648); test: Binding Inhibitory Experiment 2: fluorescently labeled test cells bound to immobilized FimA II-His; assay type: cell-based, Porphyromonas gingivalis; details: 50 μl beads, compared to fibronectin or RGD peptide alone, FIG. 3
# T2 construct: expressed in transfected cells; host or cells: CHO (CHO-VLA5)
# Procedure: (§2) CHO cells on which α5β1 integrin was forcedly expressed by introducing a gene encoding α5β1 integrin (hereinafter sometimes referred to as “CHO-VLA5”), and gingival cells were used in the Binding Inhibitory Experiments described below. As the gingival cells, three types of cells, GE1, Ca9-22 and Sa3, were used. As a control, CHO cells into which α5β1 integrin was not introduced were used. GE1, Ca9-22, and Sa3 were obtained from ATCC (American Type Culture Collection).
# FimA II-His (10 μg/(ml)) was immobilized onto a 96-well plate, and test cells that had been fluorescently labeled with CellTracker Green CMFDA (available from Invitrogen) were added in an amount of 1×10^6 cells and allowed to bind.
# 50 μl of SBA beads, RGD peptide−SBA beads, or fibronectin−SBA beads were allowed to coexist in each well, and the plate was shaken. For comparison, an experiment in which an RGD peptide or fibronectin was allowed to coexist was performed in a similar manner.
# Each well of the 96-well plates was filled with serum-free Dulbecco's modified Eagle's medium (hereinafter referred to as DMEM) or with PBS, and covered with a Parafilm to prevent air from entering. The plate was turned upside-down and allowed to stand for 5 minutes. After removing the Parafilm, a supernatant containing unbound cells was removed, and bound cells were detected using a fluorescent plate reader.
# [5] = tested on: TNFRI (TNF-α Receptor Type I); test: TNFRI phosphorylation by western blotting in test cells treated with P. gingivalis; assay type: cell-based; details: test cells with P. gingivalis carrying type II FimA fimbrial protein (10 μl), 30 μl beads, FIG. 8
# Procedure: Test cells were seeded into a 96-well plate in an amount of 5×10^5 cells. The next day, each well was washed with DMEM, and then P. gingivalis carrying type II FimA fimbrial protein (10 μl) was added as a reagent. The numerical value in the parentheses indicates the final concentration in the medium containing the reagent.
# SBA beads, RGD peptide−SBA beads, or fibronectin−SBA beads were allowed to coexist therewith in an amount of 30 μl, and the plate was shaken. After each plate was washed well with PBS, cells were dissolved in 1% NP-40, and subjected to western blotting using an anti-TNFRI antibody, anti-tyrosine phosphorylation antibody, and anti-actin antibody.
# [6] = target: T3, binding of FimA type II fimbrial protein to α5β1 integrin expression cells (Homo sapiens, UniProt P05556+P08648); test: Binding Inhibitory Experiment 1: FimA II-His bound to seeded test cells, detected by ELISA; assay type: cell-based, Porphyromonas gingivalis; details: cells immobilized; 10 μl beads; about 30 μM RGD peptide or fibronectin, about 100 μM SBA; compared to fibronectin or RGD peptide alone; FIG. 2
# T3 construct: expressed in transfected cells; host or cells: CHO (CHO-VLA5)
# Procedure: as §2
# Test cells were seeded into a 96-well plate in an amount of 5×10^5 cells. Subsequently, 50 μl of FimA II-His (10 μg/ml) was allowed to bind to the cells, and 10 μl of SBA beads, RGD peptide−SBA beads, or fibronectin−SBA beads were allowed to coexist. The plate was shaken at room temperature for 10 minutes. For comparison, an experiment in which an RGD peptide or fibronectin was allowed to coexist was performed in a similar manner. […]
# After the 96-well plate was gently washed, FimA II-His bound to the cells was detected by ELISA using an anti-His tag antibody (Cat. No. 71554-3; available from Novagen).
# The fibronectin−SBA bead solution contained about 30 μM of fibronectin and about 100 μM of SBA, whereas the solution containing only fibronectin contained about 30 μM of fibronectin. These values were calculated by measuring the amount of each protein not bound to the beads during the production. […]
# [7] = tested on: interaction between gingival cells and FimA II; test: Comparison with other lectins: labeled test cells bound to immobilized FimA II-His; assay type: cell-based, Porphyromonas gingivalis; details: 10 μL beads; SBA compared to WGA (wheat germ lectin); FIG. 5
# Procedure: FimA II-His (10 μg/ml) was immobilized onto a 96-well plate, and test cells that had been fluorescently labeled with CellTracker Green CMFDA (manufactured by Invitrogen) were bound in an amount of 1×10^6 cells.
# Subsequently, 10 μL of SBA beads, RGD peptides, RGD peptide−SBA beads, WGA beads, or RGD peptide-WGA beads were allowed to coexist, and the plate was shaken.
# The WGA beads are beads prepared in the same manner as in the production of SBA beads described above in Item 1, except for using WGA in place of SBA. The RGD peptide-WGA beads are beads prepared in the same manner as in the production of RGD peptide−SBA beads described above in Item 2, except for using WGA in place of SBA.
# as §1
# [8] = Ca9-22 cells treated with LPS 10 ng/ml
# [9] = Ca9-22 cells treated with TNF-α 10 ng/ml
# [10] = Ca9-22 cells with FimA II-GST 10 μg/ml
# [11] = Ca9-22 cells with P. gingivalis carrying FimA type II fimbrial protein (5 μl)
# T2 sequence (P08648 42-894 limits assumed): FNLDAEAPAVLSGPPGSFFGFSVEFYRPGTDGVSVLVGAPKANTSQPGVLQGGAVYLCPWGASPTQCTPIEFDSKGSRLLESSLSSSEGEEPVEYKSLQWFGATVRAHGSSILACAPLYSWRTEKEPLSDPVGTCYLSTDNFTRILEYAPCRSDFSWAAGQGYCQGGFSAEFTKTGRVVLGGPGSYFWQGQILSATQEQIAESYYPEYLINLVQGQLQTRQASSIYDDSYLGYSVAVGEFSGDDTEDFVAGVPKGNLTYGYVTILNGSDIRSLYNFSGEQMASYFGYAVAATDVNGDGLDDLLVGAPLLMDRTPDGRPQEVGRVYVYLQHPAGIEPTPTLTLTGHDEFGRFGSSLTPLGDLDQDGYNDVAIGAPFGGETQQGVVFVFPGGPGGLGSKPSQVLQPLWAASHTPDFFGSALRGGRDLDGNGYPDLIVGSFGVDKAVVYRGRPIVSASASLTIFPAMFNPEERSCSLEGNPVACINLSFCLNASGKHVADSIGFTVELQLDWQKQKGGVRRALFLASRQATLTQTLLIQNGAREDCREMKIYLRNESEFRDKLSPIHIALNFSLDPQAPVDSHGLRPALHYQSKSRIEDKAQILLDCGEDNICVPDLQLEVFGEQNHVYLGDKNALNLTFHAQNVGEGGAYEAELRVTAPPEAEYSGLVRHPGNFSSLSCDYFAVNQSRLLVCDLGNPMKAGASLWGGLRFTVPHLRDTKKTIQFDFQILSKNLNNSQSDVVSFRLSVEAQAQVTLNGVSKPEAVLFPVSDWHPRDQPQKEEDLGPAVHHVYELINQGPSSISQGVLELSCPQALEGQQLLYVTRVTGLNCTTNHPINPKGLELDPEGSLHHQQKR
# T2 sequence (P08648 895-1049 limits assumed): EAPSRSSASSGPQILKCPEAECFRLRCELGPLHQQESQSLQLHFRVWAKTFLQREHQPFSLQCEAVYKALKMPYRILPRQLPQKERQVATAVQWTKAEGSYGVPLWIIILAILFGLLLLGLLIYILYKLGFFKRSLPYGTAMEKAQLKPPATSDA
# T2 sequence (P05556 21-798): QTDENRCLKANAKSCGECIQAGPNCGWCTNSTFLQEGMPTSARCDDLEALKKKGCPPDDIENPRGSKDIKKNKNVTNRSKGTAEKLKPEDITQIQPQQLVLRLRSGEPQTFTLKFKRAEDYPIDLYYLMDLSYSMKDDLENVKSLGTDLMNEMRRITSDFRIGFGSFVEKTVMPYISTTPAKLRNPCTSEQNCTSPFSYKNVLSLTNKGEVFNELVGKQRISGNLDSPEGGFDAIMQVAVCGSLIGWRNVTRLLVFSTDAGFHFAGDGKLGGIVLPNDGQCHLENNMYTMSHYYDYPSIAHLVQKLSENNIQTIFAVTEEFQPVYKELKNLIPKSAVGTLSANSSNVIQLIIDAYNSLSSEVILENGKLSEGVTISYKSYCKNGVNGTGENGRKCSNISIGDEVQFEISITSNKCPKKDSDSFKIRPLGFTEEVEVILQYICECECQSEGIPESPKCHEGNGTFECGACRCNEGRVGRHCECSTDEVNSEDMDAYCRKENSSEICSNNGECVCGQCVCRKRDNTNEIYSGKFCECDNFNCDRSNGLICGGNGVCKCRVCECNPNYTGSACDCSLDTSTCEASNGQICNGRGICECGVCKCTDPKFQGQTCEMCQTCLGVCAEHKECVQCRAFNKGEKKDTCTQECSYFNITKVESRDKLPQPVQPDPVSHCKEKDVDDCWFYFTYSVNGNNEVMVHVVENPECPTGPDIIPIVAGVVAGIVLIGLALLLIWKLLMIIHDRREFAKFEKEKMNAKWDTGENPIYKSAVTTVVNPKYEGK
# T1 sequence (P08648 42-894 limits assumed): as the sequence (P08648 42-894 limits assumed) above
# T1 sequence (P08648 895-1049 limits assumed): as the sequence (P08648 895-1049 limits assumed) above
# T1 sequence (P05556 21-798): as the sequence (P05556 21-798) above
# T3 sequence (P08648 42-894 limits assumed): as the sequence (P08648 42-894 limits assumed) above
# T3 sequence (P08648 895-1049 limits assumed): as the sequence (P08648 895-1049 limits assumed) above
# T3 sequence (P05556 21-798): as the sequence (P05556 21-798) above
Compound,production of TGF-β (TGF-β; [8]),production of TGF-β (TGF-β; [9]),production of TGF-β (TGF-β; [10]),production of TGF-β (TGF-β; [11]),inhibition of binding of P. gingivalis carrying type II FimA fimbrial protein to gingival cells [1],effect of coexisting monosaccharide on the RGD peptide−SBA binding inhibitory effect [2],binding inhibition depending on binding ratio of RGD peptide to SBA beads [3],inhibition of binding of type II FimA protein to α5β1 integrin expression cells [4],phosphorylated tyrosine of the activation receptor (TNFRI) [5],inhibition of binding of FimA type II fimbrial protein to α5β1 integrin expression cells [6],inhibition of the interaction between gingival cells and FimA II [7]
SBA beads: conjugate of soybean lectin and NHS-activated Sepharose beads,production of TGF-β was observed,production of TGF-β was observed,production of TGF-β was detected,production of TGF-β was detected,slightly inhibited binding,–,–,–,–,–,–
CC(=O)N[C@H]1C(O)O[C@H](CO)[C@H](O)[C@@H]1O (stereo partly shown) [N-acetylgalactosamine],–,–,–,–,–,did so,–,–,–,–,–
"RGD peptide−SBA beads: beads in which SBA beads and RGD-peptide (SEQ ID NO: 3, RGDSPASSKP) are bound",production of TGF-β was observed,production of TGF-β was observed,production of TGF-β was inhibited,production of TGF-β was inhibited,inhibited; also recorded: remarkably high binding inhibitory effect,–,inhibited binding most effectively,significantly inhibited; also recorded: higher than that of fibronectin−SBA beads,not detected,significantly inhibited,–
"SBA: soybean lectin (soybean agglutinin), mucin-type sugar chain-binding lectin; tested bound to beads",–,–,–,–,–,–,–,–,–,–,more potently inhibits
